The text below walks through data of the NIST ThermoML archive (doi:10.1016/j.jct.2018.01.003).

The nature of this data set: activity coefficient (dimensionless); of the first substance listed, at infinite dilution; xn = mol fraction of the nth substance listed. The settings on record: 101.33 kPa, Liquid, Chromatography, x1 = 0.

Molecules are shown by their SMILES. ± gives the expanded uncertainty stated by the source.

Consider `CCOC(C)(C)C` [2-ethoxy-2-methylpropane] + CCCCCCCCCCCCCC[P+](CCCCCC)(CCCCCC)CCCCCC.N#CC(=C=[N-])C#N, for which the activity coefficient is, setting by setting: (328.15 K) 1.4 ± 0.09; (338.15 K) 1.45 ± 0.1; (348.15 K) 1.48 ± 0.1; (358.15 K) 1.53 ± 0.1; (368.15 K) 1.56 ± 0.1.
Turning to `CCOC(C)=O` [ethyl acetate] + CCCCCCCCCCCCCC[P+](CCCCCC)(CCCCCC)CCCCCC.N#CC(=C=[N-])C#N, the activity coefficient amounted to 0.653 ± 0.045 (328.15 K); 0.678 ± 0.046 (338.15 K); 0.699 ± 0.047 (348.15 K); 0.724 ± 0.048 (358.15 K); 0.746 ± 0.049 (368.15 K).
On to `CC#N` [acetonitrile] + CCCCCCCCCCCCCC[P+](CCCCCC)(CCCCCC)CCCCCC.N#CC(=C=[N-])C#N, for which the activity coefficient (338.15 K) stood at 0.668 ± 0.045, the activity coefficient (348.15 K) amounted to 0.669 ± 0.045, the activity coefficient (358.15 K) is 0.671 ± 0.045 and the activity coefficient (368.15 K) stood at 0.672 ± 0.046.
As for `CCC(=O)CC` [pentan-3-one] + CCCCCCCCCCCCCC[P+](CCCCCC)(CCCCCC)CCCCCC.N#CC(=C=[N-])C#N, the activity coefficient (338.15 K) amounted to 0.451 ± 0.036, the activity coefficient (348.15 K) was determined as 0.47 ± 0.037, the activity coefficient (358.15 K) is 0.494 ± 0.038 and the activity coefficient (368.15 K) was determined as 0.514 ± 0.038.
Consider `CCCCCCC` [heptane] + CCCCCCCCCCCCCC[P+](CCCCCC)(CCCCCC)CCCCCC.N#CC(=C=[N-])C#N, for which the activity coefficient was found to be 2.04 ± 0.14 (328.15 K); 2.06 ± 0.14 (338.15 K); 2.08 ± 0.14 (348.15 K); 2.1 ± 0.14 (358.15 K); 2.12 ± 0.14 (368.15 K).
On the same counts, the results for `C1CCCCCCC1` [cyclooctane] + CCCCCCCCCCCCCC[P+](CCCCCC)(CCCCCC)CCCCCC.N#CC(=C=[N-])C#N are 1.32 ± 0.09, 1.33 ± 0.09, 1.35 ± 0.09, 1.36 ± 0.09 and 1.37 ± 0.09.
For `C#CCCCC` [1-hexyne] + CCCCCCCCCCCCCC[P+](CCCCCC)(CCCCCC)CCCCCC.N#CC(=C=[N-])C#N, the activity coefficient is 0.833 ± 0.054 (328.15 K); 0.875 ± 0.056 (338.15 K); 0.914 ± 0.058 (348.15 K); 0.952 ± 0.06 (358.15 K); 0.987 ± 0.062 (368.15 K).
Consider `C1CCCCCC1` [cycloheptane] + CCCCCCCCCCCCCC[P+](CCCCCC)(CCCCCC)CCCCCC.N#CC(=C=[N-])C#N, for which the activity coefficient came to 1.21 ± 0.08 (328.15 K); 1.22 ± 0.08 (338.15 K); 1.23 ± 0.08 (348.15 K); 1.25 ± 0.08 (358.15 K); 1.26 ± 0.08 (368.15 K).
The corresponding values for `CCC(=O)OC` [methyl propanoate] + CCCCCCCCCCCCCC[P+](CCCCCC)(CCCCCC)CCCCCC.N#CC(=C=[N-])C#N are 0.616 ± 0.043, 0.641 ± 0.044, 0.663 ± 0.045, 0.688 ± 0.046 and 0.711 ± 0.047.
For the compound `C1CCOC1` [tetrahydrofuran] + CCCCCCCCCCCCCC[P+](CCCCCC)(CCCCCC)CCCCCC.N#CC(=C=[N-])C#N, the activity coefficient was 0.381 ± 0.033 (328.15 K); 0.4 ± 0.034 (338.15 K); 0.417 ± 0.035 (348.15 K); 0.436 ± 0.035 (358.15 K); 0.453 ± 0.036 (368.15 K).
Consider `C1CCCCC1` [cyclohexane] + CCCCCCCCCCCCCC[P+](CCCCCC)(CCCCCC)CCCCCC.N#CC(=C=[N-])C#N, for which the activity coefficient by setting is: (328.15 K) 1.14 ± 0.07; (338.15 K) 1.15 ± 0.07; (348.15 K) 1.16 ± 0.07; (358.15 K) 1.17 ± 0.07; (368.15 K) 1.18 ± 0.08.
The corresponding values for `c1ccsc1` [thiophene] + CCCCCCCCCCCCCC[P+](CCCCCC)(CCCCCC)CCCCCC.N#CC(=C=[N-])C#N are 0.41 ± 0.034, 0.429 ± 0.035, 0.445 ± 0.036, 0.461 ± 0.036 and 0.478 ± 0.037.
